Reference: article PMC5766898, “Eel Kisspeptins: Identification, Functional Activity, and Inhibition on both Pituitary LH and GnRH Receptor Expression” (Frontiers in Endocrinology, 2018)
“Also recorded” adds a separate entry of the source. Read-outs that look alike come from different tables or passages of the source. Ends that are not written are not given here.

How the values were obtained:
rat KissR-1 = biological target: T1, rat KissR-1 (Rattus norvegicus, UniProt Q924U1); assay: [Ca^2+]i response (Fluo-4 AM, FlexStation) in rat KissR-1-transfected CHO-K1 cells; type: cell-based; details: rat KissR-1 CHO-K1 cells, peak Fluo-4 fluorescence, 10^−12 to 10^−6 M, 37°C, four-parameter logistic, mean ± SEM from two independent experiments; for Emax: baseline normalized to 100%, 180 s recording
T1 construct: expressed in transfected cells
T1 sequence (Q924U1 whole entry): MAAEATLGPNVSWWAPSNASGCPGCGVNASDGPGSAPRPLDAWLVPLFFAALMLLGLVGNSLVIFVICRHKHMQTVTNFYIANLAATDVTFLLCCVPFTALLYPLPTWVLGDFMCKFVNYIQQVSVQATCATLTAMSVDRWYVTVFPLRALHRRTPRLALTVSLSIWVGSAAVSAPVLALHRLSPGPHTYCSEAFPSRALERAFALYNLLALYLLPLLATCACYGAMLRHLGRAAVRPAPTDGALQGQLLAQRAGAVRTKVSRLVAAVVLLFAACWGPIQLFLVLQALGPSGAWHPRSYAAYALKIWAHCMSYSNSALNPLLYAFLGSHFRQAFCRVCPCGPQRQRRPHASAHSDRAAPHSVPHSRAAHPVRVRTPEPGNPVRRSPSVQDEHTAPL
Procedure: CHO-K1 cells were cultured to semiconfluence in 12-well plates using Ham’s F12 medium supplemented with 10% fetal bovine serum and 1% antibiotic–antimycotic solution. Cells were transfected with different quantities of the recombinant plasmid, ranging from 3 to 5 µg, using Lipofectamine 2000 (Invitrogen, Cergy Pontoise, France) as previously described ([30]). Twenty-four hours after transfection, media were replaced by fresh F12 medium containing 1 mg/ml G418 (Geneticin; Life Technologies, Inc.). One week later, surviving cells were detached, diluted, and plated on 96-well plates at 0.7 cells/well. Monoclonal cell lines expressing rat KissR-1 (CHO-K1-rKissR-1) were followed daily by contrast phase microscopy. Seven independent monoclonal stable cell lines were obtained after a 3-week period of selection. By using qPCR, two cell lines were selected based on their expression levels being closest to physiological levels among all cell lines.
To compare the KissR-1 agonistic activities of eel Kp1(10), Kp2(10), Kp1(15), and Kp2(12), the level of [Ca^2+]i after stimulation of CHO-K1 cells stably expressing KissR-1 by these peptides was monitored by spectrofluorometry as previously described ([30], [31]) with slight modifications. Briefly, after 24 h in culture, cells were incubated for 1 h in a humidified incubator (37°C, 5% CO2) with 2 µM Fluo-4 acetoxymethyl ester (AM) calcium dye (Life Technologies, Saint Aubin, France) in Hank’s Buffer Saline Solution (HBSS; Life Technologies) buffered with 5 mM HEPES and supplemented with 2.5 mM probenecid (Sigma-Aldrich, Saint-Quentin Fallavier, France). Cells were washed twice with HBSS/HEPES/probenecid to remove Fluo-4 AM from the incubation medium and incubated in 150 µl of the same medium at 37°C for 15 min. Fluorescence was recorded using a Flexstation 3 fluorescence plate reader system (Molecular Devices, Saint-Grégoire, France) during 180 s with an excitation wavelength of 480 nm, an emission wavelength of 525 nm, and a cutoff filter of 515 nm. After 15 s recording in basal conditions, 50 µl of graded concentration (10^−12 to 10^−6 M) of different peptides (four-fold final concentration) was added to the incubation medium with the built-in eight-channel pipettor at a rate of 62 µl/s to assess their agonistic activity. After subtraction of mean fluorescence background from control wells without Fluo-4 AM, baseline was normalized to 100%, and fluorescence peak values were determined for each concentration of peptide. Potency (EC50) and efficacy (Emax) (Table 3) were determined with the Prism 6.0 software (GraphPad Software In., La Jolla, CA, USA) using a four-parameter logistic equation to fit peak fluorescence data.

human KissR-1 [1] = tested on: human KissR-1; set-up: method as in PMID 26047834; details: CHO cells; cited from earlier work
mouse KissR-1 = tested on: mouse KissR-1; set-up: method as in PMID 26047834; details: CHO cells; cited from earlier work
LH secretion = details: im injection, prepubertal and adult sea bass; Kp2(10) versus Kp1(10); cited from earlier work
Text: (§1) This paradoxical inhibitory effect contrasts with the general action of kisspeptin as an activator of puberty and reproduction, mostly at the brain level ([70]), but also directly on the pituitary [for reviews see Ref. ([71], [72])]. […] In contrast, in other studied teleosts, the action of kisspeptin is generally ...

[2] = tested on: LH release by pituitary cells; details: cited from earlier work
Text: as §1

[3] = tested on: lhβ expression by eel pituitary cells; details: eel pituitary cells in primary culture; cited from earlier work
Text: In the eel, three Kiss receptor genes have been characterized, i.e., KissR-1, KissR-2, and KissR-3 ([19], [22]–[24]). Their expressions mainly occur in the brain, pituitary, and gonads ([19]).

[4] = tested on: fshβ expression by eel pituitary cells; details: eel pituitary cells in primary culture; cited from earlier work
human KissR-1 [5] = tested on: human KissR-1; set-up: method as in PMID 19164475; details: CV-1 cells; cited from earlier work
KissR-2 = details: cited from earlier work
Text: (§2) For clarity, the nomenclature of Pasquier et al ([19], [24]) for KissR will be used in the following paragraphs. In teleost models with two receptors, various studies have shown differential affinities of Kiss peptides toward homologous receptors.

KissR-3 = details: cited from earlier work
Text: as §2

LH release = details: cited from earlier work
Text: as §1

lh expression = details: cited from earlier work
Text: as §1

FSH gene transcription = details: striped bass; cited from earlier work
Text: as §1

FSH peptide secretion = details: striped bass; cited from earlier work
Text: as §1

plasma LH levels = details: striped bass, im, cited from earlier work
Text: as §1

pituitary gnrh-r mRNAs = details: female striped bass at dummy run phase, chronic administration in vivo; cited from earlier work
Text: (§3) This receptor is the one increased during experimental maturation in both female and male eels ([25]). To the best of our knowledge, only a single other study investigated the effect of kisspeptin on GnRH receptor in teleost. In female striped bass at dummy run phase (ovarian development is initiated but not completed), chronic administration in vivo of both Kp1(15) and Kp2(12) induces a decrease ...

FSH release = details: sea bass; cited from earlier work
Text: as §1

[6] = tested on: expression of LH by pituitary cells; details: goldfish pituitary cells, mixed sexes at late stages of sexual regression; cited from earlier work
Text: as §1

human KissR-1 [7] = tested on: human KissR-1; set-up: method as in PMID 18509165; details: COS-7 cells; cited from earlier work
type II gnrh-r = details: repeated injections, juvenile female Japanese quail; cited from earlier work
Text: as §3

[8] = pituitary cells from sexually mature female goldfish
[9] = zebrafish, COS-7, CHO-K1, and HEK293 cells
[10] = pituitary cells from mature male sea bass
[11] = striped bass, COS-7 cells, Kp1(15) versus Kp2(12)

Substance: ENFSSYNWNSFGLRY-NH2 [Eel Kp1(15)]
- Emax (rat KissR-1): 277 ± 5.3%
- EC50 (rat KissR-1): 11.8 ± 2 nM

Substance: FNFNPFGLRF [sea bass Kp2(10), sea bass Kiss peptide]
- activation of human KissR-1 (human KissR-1 [1]): can efficiently activate human KissR-1
- activation of mouse KissR-1 (mouse KissR-1): not able to induce any activation
- potency in inducing LH secretion (LH secretion): significantly more potent than Kp1(10) in inducing LH secretion

Substance: FNRNPFGLRF-NH2 [Eel Kp2(10)]
- Emax (rat KissR-1): 260 ± 9.5%
- EC50 (rat KissR-1): 56.6 ± 27.7 nM

Substance: FNYNPFGLRF [goldfish Kp2(10), homologous goldfish Kp2(10)]
- effect on LH release [2, 8]: inactive on LH release

Substance: FNYNPFGLRF [zebrafish Kp2(10), heterologous kisspeptin]
- effect on lhβ expression, heterologous kisspeptins [3]: can inhibit lhβ expression; also recorded: specific in vitro inhibitory effect
- effect on fshβ expression, heterologous kisspeptins [4]: no effect on fshβ
- activation of human KissR-1 (human KissR-1 [5]): highly efficient
- activation of KissR-2 (KissR-2; [9]): activated by both Kp1(10) and Kp2(10)

Substance: HQDMSSYNFNSFGLRY [chub mackerel Kp1(16), chub mackerel predicted mature peptide]
- activity on KissR-3 (KissR-3; chub mackerel, Kp1(16) versus Kp1(15)): more active than the shorter Kp1(15)

Substance: QDVSSYNLNSFGLRY [sea bass Kp1(15), sea bass Kiss peptide]
- activation of human KissR-1 (human KissR-1 [1]): can efficiently activate human KissR-1
- preference for KissR-2 (KissR-2; sea bass, CHO cells): preference for KissR-2
- effect on LH release (LH release; [10]): no effect
- effect on lh expression (lh expression; [10]): no effect

Substance: QDVSSYNLNSFGLRY [striped bass Kp1(15), striped bass Kiss peptide]
- activation of KissR-3 (KissR-3; [11]): activate KissR-3 with the same potency
- effect on FSH gene transcription (FSH gene transcription): stimulate FSH
- effect on FSH peptide secretion (FSH peptide secretion): stimulate FSH
- effect on lh expression (lh expression; striped bass, in vitro): inhibitory effect on lh expression
- effect on plasma LH levels (plasma LH levels; gonadal recrudescence): could increase LH levels at gonadal recrudescence
- effect on plasma LH levels (plasma LH levels; overall): induces plasma LH levels in a stage-dependent manner
- effect on plasma LH levels (plasma LH levels; pubertal stage): no effect on LH at pubertal stage
- effect on pituitary gnrh-r mRNAs (pituitary gnrh-r mRNAs): induces a decrease of pituitary gnrh-r mRNAs

Substance: QNVAYYNLNSFGLRY [zebrafish Kp1(15), heterologous kisspeptin]
- effect on lhβ expression, heterologous kisspeptins [3]: can inhibit lhβ expression; also recorded: specific in vitro inhibitory effect
- effect on fshβ expression, heterologous kisspeptins [4]: no effect on fshβ
- activation of human KissR-1 (human KissR-1 [5]): highly efficient
- preference for KissR-2 (KissR-2; zebrafish, CV-1 cells): preference for KissR-2

Substance: SKFNFNPFGLRF [sea bass Kp2(12), sea bass Kiss peptide]
- activation of human KissR-1 (human KissR-1 [1]): can efficiently activate human KissR-1
- potency for activating KissR-3 (KissR-3; sea bass, CHO cells): higher potency for activating KissR-3
- in vitro FSH release (FSH release): can induce in vitro FSH release
- effect on LH release (LH release; [10]): induces both lh expression and LH release
- effect on lh expression (lh expression; [10]): induces both lh expression and LH release

Substance: SKFNFNPFGLRF [striped bass Kp2(12), striped bass Kiss peptide]
- activation of KissR-2 (KissR-2; striped bass, COS-7 cells, Kp2(12) versus Kp1(15)): more efficiently activated
- activation of KissR-3 (KissR-3; [11]): activate KissR-3 with the same potency
- effect on FSH gene transcription (FSH gene transcription): stimulate FSH
- effect on FSH peptide secretion (FSH peptide secretion): stimulate FSH
- effect on LH release (LH release; striped bass, in vitro): stimulated LH release
- effect on plasma LH levels (plasma LH levels; gonadal recrudescence): could increase LH levels at gonadal recrudescence
- effect on plasma LH levels (plasma LH levels; overall): induces plasma LH levels in a stage-dependent manner
- effect on pituitary gnrh-r mRNAs (pituitary gnrh-r mRNAs): induces a decrease of pituitary gnrh-r mRNAs

Substance: SKFNRNPFGLRF-NH2 [Eel Kp2(12)]
- Emax (rat KissR-1): 256 ± 6.7%
- EC50 (rat KissR-1): 135 ± 18.9 nM

Substance: SKFNYNPFGLRF [zebrafish Kp2(12), zebrafish Kiss peptide]
- activation of human KissR-1 (human KissR-1 [5]): highly efficient
- potency for activating KissR-3 (KissR-3; zebrafish, CV-1 cells): higher potency for activating KissR-3

Substance: YNLNSFGLRY [goldfish Kp1(10), homologous goldfish Kp1(10)]
- effect on LH release ([2]; goldfish pituitary cells, mixed sexes at late stages of sexual regression): increases the release and expression of LH
- effect on LH release [2, 8]: inactive on LH release
- effect on LH expression [6]: increases the release and expression of LH

Substance: YNLNSFGLRY [sea bass Kp1(10), sea bass Kiss peptide]
- activation of human KissR-1 (human KissR-1 [1]): can efficiently activate human KissR-1

Substance: YNLNSFGLRY [zebrafish Kp1(10), heterologous kisspeptin]
- effect on lhβ expression, heterologous kisspeptins [3]: can inhibit lhβ expression; also recorded: specific in vitro inhibitory effect
- effect on fshβ expression, heterologous kisspeptins [4]: no effect on fshβ
- activation of human KissR-1 (human KissR-1 [7]): highly efficient
- activation of KissR-2 (KissR-2; [9]): activated by both Kp1(10) and Kp2(10)
- activation of KissR-3 (KissR-3; [9]): preferentially activated by Kp1(10)

Substance: YNWNSFGLRF [human/lamprey Kp1(10), heterologous kisspeptin]
- effect on lhβ expression, heterologous kisspeptins [3]: can inhibit lhβ expression; also recorded: specific in vitro inhibitory effect
- effect on fshβ expression, heterologous kisspeptins [4]: no effect on fshβ
- effect on pituitary expression of type II gnrh-r (type II gnrh-r): upregulated pituitary expression of type II

Substance: YNWNSFGLRY-NH2 [Eel Kp1(10)]
- Emax (rat KissR-1): 236 ± 8.4%
- EC50 (rat KissR-1): 8.5 ± 4.5 nM

Substance: human Kp1(14): heterologous kisspeptin (DLPNYNWNSFGLRF; ends and bridges not checked; UniProt Q15726 108-121, looked up)
- effect on lhβ expression, heterologous kisspeptins [3]: can inhibit lhβ expression; also recorded: specific in vitro inhibitory effect
- effect on fshβ expression, heterologous kisspeptins [4]: no effect on fshβ
